A word on the Papp A→B: it is how fast a substance crosses the layer from the apical side. Higher therefore signals fast passage. As usually defined, the logD is the decadic logarithm of the distribution of all forms, ionised or not, between an organic phase and buffer at a given pH. Read a low logD as a more hydrophilic compound. As usually defined, the bioavailability is the share of a dose that reaches the circulation, judged against a reference dose that is usually intravenous. A low value points to little systemic uptake. For orientation: Tmax means the time from dosing to the highest level. For orientation: Vd means the apparent volume that relates the amount in the body to the concentration in plasma or blood.

A short description of one data set: in vitro. The settings on record: dog, MDCK.
The nature of a further data set: physchem. The settings on record: buffer, pH 7.4.
The nature of data set [1]: in vivo. The settings on record: rat, po, 3 mg/kg.
Data set [2] in a line: in vivo. The settings on record: rat, brain, iv, 1 mg/kg.
The nature of data set [3]: in vivo. The settings on record: rat, po, 3 mg/kg. The source holds these as a separate data set.
The nature of data set [4]: in vivo. The settings on record: rat, iv, 1 mg/kg.
Data set [5] in a line: in vivo. The settings on record: rat, po, 2 mg/kg.
A short description of data set [6]: in vivo. The settings on record: rat, brain, iv, 0.5 mg/kg.
Data set [7] can be described thus: in vivo. The settings on record: rat, iv, 0.5 mg/kg.
Data set [8] can be described thus: in vivo. The settings on record: rat, po, 2 mg/kg. This is another data set of the same source.

With `Cc1cc(NC(=O)c2ccc(Cl)cc2Cl)n(-c2ccccc2)n1`, the Papp A→B in the data set “in vitro” turned out to be 30 ×10⁻⁶ cm/s. This compound came in with a logD in the data set “physchem” of 3.3.

In “in vitro”, `NC(=O)c1cc(NC(=O)c2cc(-c3ccccn3)c(F)cc2Cl)n(-c2ccccc2)n1` had a Papp A→B of 10 ×10⁻⁶ cm/s. Moreover, the logD in “physchem” is 2.7.

Take `CC(=O)Nc1cccc(-c2ccc(Cl)c(C(=O)Nc3cc(C(N)=O)nn3-c3ccccc3)c2)n1`: in the data set “in vitro”, the Papp A→B worked out at 10 ×10⁻⁶ cm/s. In addition, in “physchem”, the logD came to 2.7.

In “in vitro”, `O=C(NC1COC1)c1cc(NC(=O)c2cc(-c3ccccn3)c(Cl)cc2Cl)n(-c2ccccc2)n1` came in with a Papp A→B of 11 ×10⁻⁶ cm/s. The compound also showed a logD in the data set “physchem” of 3.

With `NC(=O)c1cc(NC(=O)c2cc(-c3ccccn3)c(Cl)cc2Cl)n(-c2ccccc2)n1`, the Papp A→B in “in vitro” came out at 17 ×10⁻⁶ cm/s. This compound also gave a pH-dependent lipophilicity (logD) in the data set “physchem” of 3.

With `CC(C)(O)CNC(=O)c1cc(NC(=O)c2cc(-c3ncccc3F)c(F)cc2Cl)n(-c2ccccc2)n1`, the Papp A→B in the data set “in vitro” was determined as 17 ×10⁻⁶ cm/s. In addition, the logD in “physchem” was determined as 3.1.

`COc1cc(Cl)c(C(=O)Nc2cc(C(N)=O)nn2-c2ccccc2)cc1-c1ccccn1` displayed a Papp A→B in “in vitro” of 13 ×10⁻⁶ cm/s. Besides, the logD in the data set “physchem” came to 2.4.

As for `NCCNC(=O)c1cc(NC(=O)c2cc(-c3ccccn3)c(Cl)cc2Cl)n(-c2ccccc2)n1`, in “in vitro”, the Papp A→B amounted to 0.72 ×10⁻⁶ cm/s. Also, the logD in “physchem” was found to be 0.94.

For `O=C(NCCO)c1cc(NC(=O)c2cc(-c3ccccn3)c(Cl)cc2Cl)n(-c2ccccc2)n1`, in “in vitro”, the Papp A→B is 12 ×10⁻⁶ cm/s. Moreover, in the data set “physchem”, the logD was found to be 2.8.

With `NC(=O)c1cc(NC(=O)c2cc(-c3ncccc3F)ccc2Cl)n(-c2ccccc2)n1`, the bioavailability in the data set “in vivo [1]” was found to be 100%. Further, the Papp A→B in “in vitro” was 19 ×10⁻⁶ cm/s. In addition, the Kp uu at 4 h in the data set “in vivo [2]” was 0.1. The same compound had a logD in the data set “physchem” of 2.6. Also, the Tmax in the data set “in vivo [3]” came out at 4 h. In the data set “in vivo [4]”, the Vd was 0.46 L/kg.

In the data set “in vitro”, `Cc1cc(Cl)c(C(=O)Nc2cc(C(N)=O)nn2-c2ccccc2)cc1-c1ccccn1` displayed a Papp A→B of 12 ×10⁻⁶ cm/s. In the data set “physchem”, this compound had a logD of 2.6.

Turning to `NC(=O)c1cc(NC(=O)c2cc(-c3ncccc3F)c(F)cc2Cl)n(-c2ccccc2)n1`, the Papp A→B in “in vitro” was 23 ×10⁻⁶ cm/s. The compound further gave a logD in “physchem” of 2.7.

For `O=C(NCCO)c1cc(NC(=O)c2cc(-c3ccccn3)c(C(F)(F)F)cc2Cl)n(-c2ccccc2)n1`, the Papp A→B in “in vitro” was 8.5 ×10⁻⁶ cm/s. Further, the logD in the data set “physchem” turned out to be 3.

In turn, `NC(=O)c1cc(NC(=O)c2cc(-c3cccc(C(F)F)n3)ccc2Cl)n(-c2ccccc2)n1` showed a Papp A→B in “in vitro” of 8.5 ×10⁻⁶ cm/s. Also, in “physchem”, the logD amounted to 3.5.

Turning to `NC(=O)c1cccc(-c2ccc(Cl)c(C(=O)Nc3cc(C(N)=O)nn3-c3ccccc3)c2)n1`, the Papp A→B in “in vitro” was 6.1 ×10⁻⁶ cm/s. Further, the logD in the data set “physchem” amounted to 2.3.

Consider `NC(=O)c1cc(NC(=O)c2cc(-c3ncccc3Cl)ccc2Cl)n(-c2ccccc2)n1`, for which, in the data set “in vivo [1]”, the bioavailability is 85%. In the data set “in vitro”, this compound gave a Papp A→B of 14 ×10⁻⁶ cm/s. The Kp uu at 4 h in “in vivo [2]” was 0.076. Moreover, in “physchem”, the logD came to 2.8. Besides, the Tmax in “in vivo [3]” turned out to be 0.9 h. In addition, the Vd in “in vivo [4]” is 1.1 L/kg.

As to `NC(=O)c1cc(NC(=O)c2cc(-c3ccccn3)c(OC(F)F)cc2Cl)n(-c2ccccc2)n1`, the Papp A→B in the data set “in vitro” amounted to 13 ×10⁻⁶ cm/s. This compound also gave a logD in the data set “physchem” of 2.7.

In the data set “in vitro”, `O=C(NCCO)c1cc(NC(=O)c2cc(-c3ncccc3F)c(Cl)cc2Cl)n(-c2ccccc2)n1` displayed a Papp A→B of 13 ×10⁻⁶ cm/s. In “physchem”, this compound displayed a logD of 2.8.

`NC(=O)c1cc(NC(=O)c2cc(-c3ccccn3)c(C3CC3)cc2Cl)n(-c2ccccc2)n1` returned a logD in the data set “physchem” of 3.1.

For the compound `CC(C)(O)CNC(=O)c1cc(NC(=O)c2cc(-c3ncccc3F)c(Cl)cc2Cl)n(-c2ccccc2)n1`, the bioavailability in the data set “in vivo [5]” came to 46%. Further, in the data set “in vivo [6]”, the Kp uu at 4 h stood at 0.015. Besides, the Vd in the data set “in vivo [7]” is 1.6 L/kg. In “in vitro”, the Papp A→B was 12 ×10⁻⁶ cm/s. In addition, the logD in the data set “physchem” was 3.3. The time of peak concentration (Tmax) in the data set “in vivo [8]” stood at 3 h.

Regarding `NC(=O)c1cc(NC(=O)c2cc(-c3nc(N)ccc3Cl)ccc2Cl)n(-c2ccccc2)n1`, the Papp A→B in the data set “in vitro” turned out to be 11 ×10⁻⁶ cm/s. In addition, the logD in the data set “physchem” turned out to be 3.2.

On to `NC(=O)c1cc(NC(=O)c2cc(-c3cccc(N)n3)c(Cl)cc2Cl)n(-c2ccccc2)n1`, for which the Papp A→B in “in vitro” amounted to 11 ×10⁻⁶ cm/s. In addition, the logD in the data set “physchem” is 2.9.

The record behind these values is ChEMBL document CHEMBL4308832, “Discovery of Allosteric, Potent, Subtype Selective, and Peripherally Restricted TrkA Kinase Inhibitors” (J Med Chem, 2018).
